The text below walks through data of article PMC4604408, “Targeting the Parasite's DNA with Methyltriazenyl Purine Analogs Is a Safe, Selective, and Efficacious Antitrypanosomal Strategy” (Antimicrobial Agents and Chemotherapy, 2015).

For one data set, the system named is Tbb msh2-/-. Kind of data set: microbe, parasite or virus in culture. Type of data set: cell-based, Trypanosoma brucei. To be noted: for EC50: read-out: Tbb msh2-/- (EC50; µM) AVG.
The next data set deals with Tbb msh2+/-. Description: microbe, parasite or virus in culture. In kind it is cell-based, Trypanosoma brucei. To be noted: read-out: Tbb msh2+/- (EC50; µM) AVG.
The subject of a further data set is Tbb msh2+/+. Description: microbe, parasite or virus in culture. Type of data set: cell-based, Trypanosoma brucei. To be noted: read-out: Tbb msh2+/+ (EC50; µM) AVG.
In data set [1] the test system is T. brucei brucei WT (strain 427). Description: microbe, parasite or virus in culture. Type of data set: cell-based. Conditions: for SI, in vitro selectivity index: EC50(HEK)/EC50(T. brucei brucei WT); for EC50: Trypanosoma brucei, read-out: In vitro activity (EC50) T. brucei brucei WT.
Data set [2] has as its system T. brucei brucei 427 tbat1^−/−. Description: microbe, parasite or virus in culture. Type of data set: cell-based. To be noted: for EC50: Trypanosoma brucei, read-out: In vitro activity (EC50) T. brucei brucei 427 tbat1^−/−.
For data set [3], the system named is HEK293 (human embryonic kidney 293T cells). Kind of data set: cells. To be noted: read-out: In vitro activity (EC50) HEK293.
In data set [4] the target is T. brucei H2 (hypoxanthine transporter 2 of T. brucei brucei). Type of data set: cell-based. Conditions: read-out: Transport (Ki value) T. brucei H2.
Data set [5] deals with HEK293 (human embryonic kidney 293T cells).
The target in data set [6] is T. brucei H2 (hypoxanthine transporter 2 of T. brucei brucei). On the set-up: method as in PMID 9364969. Conditions: natural substrates; read-out: Transport (Ki value) T. brucei H2; cited from earlier work.
In data set [7] the test system is bloodstream-form T. brucei. Kind of data set: potency in Creek's minimal medium with inosine or hypoxanthine as purine source. To be noted: Creek's minimal medium, same concentration of inosine or hypoxanthine. In kind it is cell-based.
The nature of another data set: physchem. Conditions: buffer.
Data set [8] deals with T. b. rhodesiense STIB 900. Kind of data set: microbe, parasite or virus in culture. In kind it is cell-based. Conditions: Trypanosoma brucei, read-out: Trypanosoma brucei rhodesiense EC50.
For another data set, the system named is P. falciparum K1 strain. Description: microbe, parasite or virus in culture. In kind it is cell-based. Conditions: Plasmodium falciparum, K1, read-out: Plasmodium falciparum EC50.
Setting [9] is: inhibition of 0.05 μM [3H]hypoxanthine uptake, 60 s, mean ± SEM, n ≥ 3.

Each structure is given as a SMILES string. Read-outs that look alike come from different tables or passages of the source.

`N.N.[Cl][Pt][Cl]` [Cisplatin]: the EC50 was 13.6 µM in the data set with Tbb msh2-/-, 17.7 µM in the data set on Tbb msh2+/- and 13.4 µM in the data set with Tbb msh2+/+.
Take `Cn1nnc2c(C(N)=O)ncn2c1=O` [TMZ, temozolomide]: in the data set on Tbb msh2-/-, the “potency against cells with impaired or lost MSH2 activity” value is recorded as “reduced potency”. Further, the EC50 stood at 173 µM in the data set on Tbb msh2-/- (Trypanosoma brucei), 204 µM with Tbb msh2+/- (Trypanosoma brucei) and 95 µM in the data set with Tbb msh2+/+ (Trypanosoma brucei).
Consider `CN(N=Nc1nc(O)c2[nH]cnc2n1)C(=O)Oc1ccc([N+](=O)[O-])cc1` [Compound 4], for which, in data set [1], the “antitrypanosomal potency against BF T. brucei in vitro (in words)” value is reported as “practically lost antitrypanosomal activity”; the “SI, in vitro selectivity index” value is more than 2; the EC50 turned out to be 114 ± 34 µM. Also, the EC50 in data set [2] was 157 ± 55 µM. For the same molecule, the EC50 in data set [3] was more than 250 µM.
`O=C(NN=Nc1nc(O)c2[nH]cnc2n1)Oc1ccccc1` [Compound 5]: the EC50 with Tbb msh2-/- (Trypanosoma brucei) was 168 µM; in [1], more than 100 µM; in data set [2], more than 100 µM; in the data set with Tbb msh2+/- (Trypanosoma brucei) it was 166 µM; in the data set on Tbb msh2+/+ (Trypanosoma brucei), 192 µM; in data set [3] it was more than 250 µM. In addition, in [1], the “antitrypanosomal potency against BF T. brucei in vitro (in words)” value was “did not show any toxic effects”. In addition, in [4] (setting [9]), the Ki was 0.09 ± 0.02 µM. Further, the “toxicity to HEK293T cells (in words)” value in data set [5] was “did not show any toxic effects”.
Turning to `CN(N=Nc1nc(N)c2[nH]cnc2n1)C(=O)Oc1ccc([N+](=O)[O-])cc1` [Compound 7], the “SI, in vitro selectivity index” value in [1] is recorded as more than 13. The EC50 in [1] is 19.4 ± 4.1 µM; in data set [2], 20.7 ± 4.6 µM; in [3], more than 250 µM.
For the molecule `O=c1[nH]cnc2nc[nH]c12` [Hypoxanthine], in data set [6], the Ki is 0.12 ± 0.03 µM.
As for `Nc1ncnc2[nH]cnc12` [Adenine], the Ki in [6] was 3.2 ± 1.1 µM.
For the molecule `CC(=O)N(C)/N=N/c1nc(OCc2ccccc2)c2nc[nH]c2n1` [Compound 9], the Ki in data set [4] turned out to be 5.8 ± 0.01 µM.
As to `COS(C)(=O)=O` [MMS, methyl methanesulfonate], the EC50 in the data set with Tbb msh2-/- (Trypanosoma brucei) was found to be 46.7 µM; in the data set with Tbb msh2+/- (Trypanosoma brucei) it was 57.2 µM; in the data set with Tbb msh2+/+ (Trypanosoma brucei) it was 48.9 µM.
As for `CCOC(=O)N(C)/N=N/c1nc(O)c2nc[nH]c2n1` [Compound 3], the “SI, in vitro selectivity index” value in data set [1] is recorded as more than 136. In addition, the EC50 in data set [1] is 1.84 ± 0.08 µM; in data set [2] it was 2.86 ± 0.13 µM; in [3] it was more than 250 µM. For the same molecule, in data set [4], the Ki came out at 0.12 ± 0.03 µM.
For the molecule `N=C(N)c1ccc(OCCCCCOc2ccc(C(=N)N)cc2)cc1` [Pentamidine], the EC50 in the data set with Tbb msh2-/- (Trypanosoma brucei) amounted to 0.004 µM; in the data set on Tbb msh2+/- (Trypanosoma brucei), 0.011 µM; in the data set on Tbb msh2+/+ (Trypanosoma brucei), 0.011 µM. Besides, the “sensitivity (EC50) in medium with inosine compared to hypoxanthine as purine source” value in [7] was “not significantly different”.
Turning to `CN(N=Nc1nc(N)c2[nH]cnc2n1)C(=O)Oc1ccccc1` [Compound 6], the “SI, in vitro selectivity index” value in [1] is more than 24. Also, the EC50 is 10.4 ± 0.5 µM in [1], 10.7 ± 0.4 µM in data set [2] and more than 100 µM in data set [3]. In data set [4] (setting [9]), the Ki was 0.46 ± 0.08 µM.
On to `CN(N=Nc1nc(O)c2[nH]cnc2n1)C(=O)Oc1ccccc1` [Compound 2], for which the “potency against cells with impaired or lost MSH2 activity” value in the data set with Tbb msh2-/- is “reduced potency”. Further, the EC50 with Tbb msh2-/- (Trypanosoma brucei) is 6.8 µM; in data set [1], 0.8 ± 0.07 µM; in data set [2], 1.21 ± 0.19 µM; in the data set with Tbb msh2+/- (Trypanosoma brucei), 4.3 µM; in the data set with Tbb msh2+/+ (Trypanosoma brucei) it was 2.3 µM; in data set [3] it was more than 250 µM. For the same molecule, the “SI, in vitro selectivity index” value in data set [1] was more than 312. Further, the half-life at 50 µM in the data set “physchem” is 5.6 ± 0.3 h. The Ki in [4] (setting [9]) amounted to 0.2 ± 0.06 µM.
With `N=C(N)c1ccc(/N=N/Nc2ccc(C(=N)N)cc2)cc1` [DIM, diminazene, reference compound], the EC50 was 0.68 µM in the data set on Tbb msh2-/- (Trypanosoma brucei); 0.26 ± 0.05 µM in data set [1]; 7.9 ± 0.7 µM in [2]; 0.64 µM in the data set on Tbb msh2+/- (Trypanosoma brucei); 0.5 µM with Tbb msh2+/+ (Trypanosoma brucei). The “fold lower activity against tbat1^−/− cells than wild type” value in data set [2] (tbat1^−/− versus wild-type) was 30 fold.
Regarding `Nc1nc2nc[nH]c2c(=O)[nH]1` [Guanine], in [6], the Ki was 0.36 ± 0.18 µM.
As to `CN(/N=N/c1nc(OCc2ccccc2)c2nc[nH]c2n1)C(=O)Oc1ccccc1` [Compound 10], the results for the EC50 (in [8]; in the data set with P. falciparum K1 strain) were 8.9 µM and more than 10 µM, respectively. Besides, the Ki in [4] (setting [9]) is 22.5 ± 9.2 µM.
For `Cc1ccc(C(=O)Nc2ccc(S(=O)(=O)O)c3cc(S(=O)(=O)O)cc(S(=O)(=O)O)c23)cc1NC(=O)c1cccc(NC(=O)Nc2cccc(C(=O)Nc3cc(C(=O)Nc4ccc(S(=O)(=O)O)c5cc(S(=O)(=O)O)cc(S(=O)(=O)O)c45)ccc3C)c2)c1` [suramin], in data set [7], the “sensitivity (EC50) in medium with inosine compared to hypoxanthine as purine source” value is “not significantly different”.
